# Test results as given in patent publication US20200405697A1, “Antitumor Agent” (Taiho Pharmaceutical Co., Ltd, priority 2017, published 2020).
# Molecular target: T1, human RNR (histidine tagged human M1 and human M2 proteins) (Homo sapiens, UniProt P23921)
# T1 construct: made in house; host or cells: Escherichia coli
# T1 sequence (P23921 1-792): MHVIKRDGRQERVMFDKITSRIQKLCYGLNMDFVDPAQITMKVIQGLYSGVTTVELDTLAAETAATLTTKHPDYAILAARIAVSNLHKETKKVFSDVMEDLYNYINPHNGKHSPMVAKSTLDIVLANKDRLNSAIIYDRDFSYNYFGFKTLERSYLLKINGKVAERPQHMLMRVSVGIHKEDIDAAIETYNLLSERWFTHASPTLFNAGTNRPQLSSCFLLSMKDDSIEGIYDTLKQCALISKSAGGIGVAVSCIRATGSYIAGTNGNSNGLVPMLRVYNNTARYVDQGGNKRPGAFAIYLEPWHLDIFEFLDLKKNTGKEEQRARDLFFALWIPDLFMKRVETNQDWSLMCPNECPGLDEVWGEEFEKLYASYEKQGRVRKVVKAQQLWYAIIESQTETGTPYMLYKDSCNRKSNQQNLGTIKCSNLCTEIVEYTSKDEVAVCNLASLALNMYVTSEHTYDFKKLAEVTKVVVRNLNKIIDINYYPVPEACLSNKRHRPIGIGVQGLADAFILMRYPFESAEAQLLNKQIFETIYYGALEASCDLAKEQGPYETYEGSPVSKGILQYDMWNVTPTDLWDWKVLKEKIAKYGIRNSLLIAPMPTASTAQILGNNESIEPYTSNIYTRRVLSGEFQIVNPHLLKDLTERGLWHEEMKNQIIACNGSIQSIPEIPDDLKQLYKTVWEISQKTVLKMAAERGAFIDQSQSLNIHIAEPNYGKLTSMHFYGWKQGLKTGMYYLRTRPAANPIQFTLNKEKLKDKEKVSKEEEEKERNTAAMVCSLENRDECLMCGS
# Assay: Human RNR inhibition effect (dCDP formation from CDP)
# Format: biochemical
# Conditions: 10 μM CDP, 37° C. for 30 minutes, read-out: RNR inhibitory activity IC50
# Method: The inhibitory activity against the ribonucleotide reduction reaction (RNR inhibitory activity) of the Example compound was determined by measuring the formation of deoxycytidine diphosphate (hereinafter referred to as dCDP) from cytidine diphosphate (hereinafter referred to as CDP) by the following method.
# Human M1 subunit (isoform 1, GenBank accession No: NM_001033), to which a histidine tag is fused at the amino terminus, and human M2 subunit (mutant lacking amino terminal 59 amino acids of isoform 2, GenBank accession No: NM_001034), to which a histidine tag is fused, were overexpressed in Escherichia coli and were solubilized after collection, and histidine tagged human M1 and histidine tagged human M2 proteins were purified on a nickel chelate column. A mixture of the histidine tagged human M1 and histidine tagged human M2 proteins was used as RNR in the ribonucleotide reduction reaction. [to]
# First, Example compounds were serially diluted with DMSO. Next, human M1 protein and human M2 protein were added to a 0.02% aqueous albumin solution derived from fetal bovine serum, a DMSO solution of the Example compound or the control DMSO solution (final concentration of DMSO was 1%) was added, and the mixture was allowed to stand for 20 minutes. Thereafter, the reaction buffer [50 mM HEPES buffer (pH 7.2) at the final concentration, 4 mM magnesium acetate at the final concentration, 100 mM potassium chloride at the final concentration, 6 mM dithiothreitol at the final concentration, 2 mM adenosine triphosphate at the final concentration, 0.24 mM nicotinamide adenine dinucleotide phosphate at final concentration] and 10 μM CDP at the final concentration were added and incubated at 37° C. for 30 minutes to perform ribonucleotide reduction reaction. Immediately after the reaction, the reaction was stopped by heating at 100° C. for 15 minutes, followed by centrifugation at 10,000 rpm for 10 minutes. After the centrifugation, a portion (5 μL) of the resulting supernatant was analyzed with a high performance liquid chromatography (Shimadzu Corporation, Prominence) using Shim-pack XR-ODS (manufactured by Shimadzu GLC Co., 3.0×100 mm).
row,IC50,SMILES
1,110 nM,"Cc1c(Cl)ccc(F)c1[C@@H](C)[C@H](NS(=O)(=O)c1ccc(Cl)c2c1OCCC2(C)N)c1n[nH]c(=O)o1 (mixture of isomers) [Example 328, 4-amino-5-chloro-N-((1S,2R)-2-(3-chloro-6-fluoro-2-methylphenyl)-1-(5-oxo-4,5-dihydro-1,3,4-oxadiazol-2-yl)propyl)-4-methylchroman-8-sulfonamide]"
2,80 nM,"[2H]C([2H])([2H])C1(O)CCOc2c(S(=O)(=O)N[C@H](c3n[nH]c(=O)o3)[C@H](C)c3c(F)ccc(C)c3C)ccc(Cl)c21 (single isomer, unassigned) [Example 200B]"
3,130 nM,"Cc1ccc(F)c([C@@H](C)[C@H](NS(=O)(=O)c2ccc(Cl)c3c2OCCC3(C)O)c2n[nH]c(=O)o2)c1C (single isomer, unassigned) [Example 207A]"
4,90 nM,"Cc1ccc(F)c([C@@H](C)[C@H](NS(=O)(=O)c2ccc(Cl)c3c2OCCC3(C)O)c2n[nH]c(=O)o2)c1C (single isomer, unassigned) [Example 207B]"
5,100 nM,"COc1c(S(=O)(=O)N[C@H](c2n[nH]c(=O)o2)[C@H](C)c2c(F)ccc(C)c2C)ccc(Cl)c1C(C)O (single isomer, unassigned) [Example 208A]"
6,60 nM,"COc1c(S(=O)(=O)N[C@H](c2n[nH]c(=O)o2)[C@H](C)c2c(F)ccc(C)c2C)ccc(Cl)c1C(C)O (single isomer, unassigned) [Example 208B]"
7,180 nM,"Cc1c(Cl)ccc(F)c1[C@@H](C)[C@H](NS(=O)(=O)c1ccc(Cl)c2c1OCCC2(C)O)c1n[nH]c(=O)o1 (single isomer, unassigned) [Example 209B]"
8,60 nM,"Cc1ccc(F)c([C@@H](C)[C@H](NS(=O)(=O)c2ccc(Cl)c3c2OCCC3(O)C(F)(F)F)c2n[nH]c(=O)o2)c1C (single isomer, unassigned) [Example 220A]"
9,80 nM,"Cc1ccc(F)c([C@@H](C)[C@H](NS(=O)(=O)c2ccc(Cl)c3c2OCCC3(O)C(F)(F)F)c2n[nH]c(=O)o2)c1C (single isomer, unassigned) [Example 220B]"
10,60 nM,"Cc1c(Br)ccc(F)c1[C@@H](C)[C@H](NS(=O)(=O)c1ccc(Cl)c2c1OCCC2(C)O)c1n[nH]c(=O)o1 (single isomer, unassigned) [Example 222B]"
11,90 nM,"Cc1ccc(F)c([C@@H](C)[C@H](NS(=O)(=O)c2ccc(F)c3c2OCCC3(C)O)c2n[nH]c(=O)o2)c1C (single isomer, unassigned) [Example 224A]"
12,100 nM,"Cc1ccc(F)c([C@@H](C)[C@H](NS(=O)(=O)c2ccc(F)c3c2OCCC3(C)O)c2n[nH]c(=O)o2)c1C (single isomer, unassigned) [Example 224B]"
13,50 nM,"[2H]C([2H])([2H])C1(O)CCOc2c(S(=O)(=O)N[C@H](c3n[nH]c(=O)o3)[C@H](C)c3c(F)ccc(Br)c3C)ccc(Cl)c21 (single isomer, unassigned) [Example 226A]"
14,70 nM,"[2H]C([2H])([2H])C1(O)CCOc2c(S(=O)(=O)N[C@H](c3n[nH]c(=O)o3)[C@H](C)c3c(F)ccc(Br)c3C)ccc(Cl)c21 (single isomer, unassigned) [Example 226B]"
15,50 nM,"Cc1c(Br)ccc(F)c1[C@@H](C)[C@H](NS(=O)(=O)c1ccc(F)c2c1OCCC2(C)O)c1n[nH]c(=O)o1 (single isomer, unassigned) [Example 227A]"
16,90 nM,"Cc1c(Br)ccc(F)c1[C@@H](C)[C@H](NS(=O)(=O)c1ccc(F)c2c1OCCC2(C)O)c1n[nH]c(=O)o1 (single isomer, unassigned) [Example 227B]"
17,140 nM,"[2H]C([2H])([2H])C1(O)CCOc2c(S(=O)(=O)N[C@H](c3n[nH]c(=O)o3)[C@H](C)c3c(F)ccc(Cl)c3C)ccc(Cl)c21 (single isomer, unassigned) [Example 228B]"

row,IC50,SMILES
1,60 nM,"Cc1c(Cl)ccc(F)c1[C@@H](C)[C@H](NS(=O)(=O)c1ccc(F)c2c1OCCC2(C)O)c1n[nH]c(=O)o1 (single isomer, unassigned) [Example 229A]"
2,110 nM,"Cc1c(Cl)ccc(F)c1[C@@H](C)[C@H](NS(=O)(=O)c1ccc(F)c2c1OCCC2(C)O)c1n[nH]c(=O)o1 (single isomer, unassigned) [Example 229B]"
3,120 nM,"Cc1ccc(F)c([C@@H](C)[C@H](NS(=O)(=O)c2ccc(F)c3c2OCCC3O)c2n[nH]c(=O)o2)c1C (single isomer, unassigned) [Example 230A]"
4,50 nM,"Cc1ccc(F)c([C@@H](C)[C@H](NS(=O)(=O)c2ccc(F)c3c2OCCC3O)c2n[nH]c(=O)o2)c1C (single isomer, unassigned) [Example 230B]"
5,310 nM,"C[C@H](c1c(F)ccc2ccccc12)[C@H](NS(=O)(=O)c1ccc(Cl)c2c1OCCC2O)c1n[nH]c(=O)o1 (single isomer, unassigned) [Example 234A]"
6,70 nM,"Cc1ccc(F)c([C@@H](C)[C@H](NS(=O)(=O)c2ccc(Cl)c3c2OCCC3O)c2n[nH]c(=O)o2)c1C (single isomer, unassigned) [Example 235B]"
7,290 nM,"Cc1ccc(F)c([C@@H](C)[C@H](NS(=O)(=O)c2cccc3c2OC(C)(C)CC3O)c2n[nH]c(=O)o2)c1C (single isomer, unassigned) [Example 237A]"
8,110 nM,"Cc1c(Cl)ccc(F)c1[C@@H](C)[C@H](NS(=O)(=O)c1ccc(Cl)c2c1OCCC2O)c1n[nH]c(=O)o1 (single isomer, unassigned) [Example 238A]"
9,200 nM,"CCc1ccc(F)c([C@@H](C)[C@H](NS(=O)(=O)c2ccc(Cl)c3c2OCCC3O)c2n[nH]c(=O)o2)c1C (single isomer, unassigned) [Example 239A]"
10,70 nM,"Cc1c(Br)ccc(F)c1[C@@H](C)[C@H](NS(=O)(=O)c1ccc(Cl)c2c1OCCC2O)c1n[nH]c(=O)o1 (single isomer, unassigned) [Example 243A]"
11,100 nM,"Cc1c(Br)ccc(F)c1[C@@H](C)[C@H](NS(=O)(=O)c1ccc(Cl)c2c1OCCC2O)c1n[nH]c(=O)o1 (single isomer, unassigned) [Example 243B]"
12,90 nM,"Cc1ccc(F)c([C@@H](C)[C@H](NS(=O)(=O)c2ccc(C(F)(F)F)c3c2OCCC3O)c2n[nH]c(=O)o2)c1C (single isomer, unassigned) [Example 244A]"
13,220 nM,"Cc1ccc(F)c([C@@H](C)[C@H](NS(=O)(=O)c2ccc(C(F)(F)F)c3c2OCCC3O)c2n[nH]c(=O)o2)c1C (single isomer, unassigned) [Example 244B]"
14,120 nM,"Cc1c(Cl)ccc(F)c1[C@@H](C)[C@H](NS(=O)(=O)c1ccc(Cl)c2c1OCCC2(C)N)c1n[nH]c(=O)o1 (single isomer, unassigned) [Example 330A]"
15,460 nM,"Cc1c(Cl)ccc(F)c1[C@@H](C)[C@H](NS(=O)(=O)c1ccc(Cl)c2c1OCCC2(C)N)c1n[nH]c(=O)o1 (single isomer, unassigned) [Example 330B]"
16,300 nM,"Cc1cccc([C@@H](C)[C@H](NS(=O)(=O)c2ccc(Cl)cc2C(N)=O)c2n[nH]c(=O)o2)c1C [Example 3, 5-chloro-2-(N-((1S,2R)-2-(2,3-dimethylphenyl)-1-(5-oxo-4,5-dihydro-1,3,4-oxadiazol-2-yl)propyl)sulfamoyl)benzamide]"
17,380 nM,"Cc1cccc([C@@H](C)[C@H](NS(=O)(=O)c2ccc(Br)cc2C(N)=O)c2n[nH]c(=O)o2)c1C [Example 4, 5-bromo-2-(N-((1S,2R)-2-(2,3-dimethylphenyl)-1-(5-oxo-4,5-dihydro-1,3,4-oxadiazol-2-yl)propyl)sulfamoyl)benzamide]"
